Paper PMC4907692, “Engineering vanilloid-sensitivity into the rat TRPV2 channel” (eLife, 2016)

Target: T1, 1D4-tagged TRPV2 QM (Rattus norvegicus, UniProt Q9WUD2, F472S/L507M/L510T/Q530E)
T1 construct: made in house; host or cells: S. cerevisiae BJ5457, isolated membranes
T1 sequence (Q9WUD2 1-761 F472S/L507M/L510T/Q530E): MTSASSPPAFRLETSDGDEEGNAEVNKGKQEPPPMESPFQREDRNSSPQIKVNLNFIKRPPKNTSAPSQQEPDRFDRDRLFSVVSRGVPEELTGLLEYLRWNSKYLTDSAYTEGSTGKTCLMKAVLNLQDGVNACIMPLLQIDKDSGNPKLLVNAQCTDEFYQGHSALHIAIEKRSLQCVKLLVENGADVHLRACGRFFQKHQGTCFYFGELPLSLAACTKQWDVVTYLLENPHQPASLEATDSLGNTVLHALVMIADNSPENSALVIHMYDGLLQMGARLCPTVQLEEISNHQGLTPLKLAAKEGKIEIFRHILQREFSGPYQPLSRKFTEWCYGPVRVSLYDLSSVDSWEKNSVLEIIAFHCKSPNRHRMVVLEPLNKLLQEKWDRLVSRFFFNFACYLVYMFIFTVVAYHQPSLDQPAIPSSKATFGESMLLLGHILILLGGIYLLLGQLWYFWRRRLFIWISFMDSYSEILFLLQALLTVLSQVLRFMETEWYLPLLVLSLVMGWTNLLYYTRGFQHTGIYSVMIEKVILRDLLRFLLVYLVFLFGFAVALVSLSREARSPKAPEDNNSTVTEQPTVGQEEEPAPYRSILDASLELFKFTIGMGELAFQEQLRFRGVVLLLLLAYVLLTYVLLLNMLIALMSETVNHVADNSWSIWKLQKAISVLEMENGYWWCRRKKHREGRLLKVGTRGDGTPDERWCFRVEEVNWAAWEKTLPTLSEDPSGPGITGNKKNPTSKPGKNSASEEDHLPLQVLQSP
Experiment: 3H-RTx binding to yeast membranes containing 1D4-tagged TRPV2 QM
Excerpt: To examine the strength of RTx binding to the TRPV2 channel, we undertook binding assays after expressing 1D4-tagged TRPV2 and TRPV2 QM in S. cerevisiae and isolating yeast membranes, similar to the experiments described above with TRPV1 (Figure 2). […] To examine the relative importance of the four residues for mediating RTx sensitivity in the TRPV2 QM, we constructed triple mutants and evaluated their sensitivity to RTx electrophysiologically.
The full-length TRPV1 and TRPV2 channels with 1D4 affinity tags ([…]) on their C-termini were cloned into the YEpHIS vector and expressed in the BJ5457 strain of S. cerevisiae using the strong constitutively active PMA1 promoter, as previously described ([Moiseenkova-Bell et al., 2008]). After 48 hr of expression at 30°C in YPD media, cells were harvested by centrifugation and re-suspended in PBS buffer, supplemented with complete protease inhibitor cocktail (Roche, Indianapolis, IN) and 4-amidinophenylmethanesulfonyl fluoride hydrochloride (APMSF) (Sigma-Aldrich, St. Louis, MO). Cells were broken by passing through an Avestin homogenizer at the pressure of 35 kpsi, cell lysate was cleared by centrifugation at 8,000 g for 15 min and membranes were isolated by ultracentrifugation at 190,000 g for 1 hr. […]
S. cerevisiae cells overexpressing TRPV1 constructs to be used in ligand binding assays on intact cells (Figure 1E,F) were grown as for small scale expression trials. 24 hr after protein induction cells were spun down at 4000g, the supernatant was removed and the pellet resuspended in 1x PBS, normalizing OD600 to 75 for each sample, and aliquoted for storage at -80°C. ^3H-RTx binding assays on cells were performed at 37°C as previously described ([Feng et al., 2015]), but where non-specific binding of RTx was measured using cells expressing GFP alone. […] Data for binding of RTx to membranes was corrected for non-specific binding, determined using either excess non-radioactive ligand or heat inactivation of the protein, as previously described ([Feng et al., 2015]). […]

C=C(C)[C@]12C[C@@H](C)[C@@]34O[C@](Cc5ccccc5)(O[C@@H]1[C@@H]3C=C(COC(=O)Cc1ccc(O)c(OC)c1)C[C@]1(O)C(=O)C(C)=C[C@@H]41)O2 [RTx, resiniferatoxin]
affinity of RTx for TRPV2 QM lower compared to TRPV1: about 30 fold
Hill slope (nH) (37°C): 1.7
Kd (37°C, read-out: Kd of 3H-RTx binding (Hill fit)): 18 nM
